Experiments:
[1] = test system: scopolamine-induced spontaneous alternation behavior disorder; test: Scopolamine-induced spontaneous alternation behavior disorder in mice (Y-maze); type: in vivo; settings: mouse, oral, dose 0.003 mg/kg; scopolamine 0.5 mg/kg i.p.
Protocol: (§1) An Improvement Effect for Scopolamine-Induced or MK-801-Induced Spontaneous Alternation Behavior in Mice
(§2) An improvement effect of the compound (I) for cognitive impairment was evaluated by the above-described well-known test method as a model of a short-term learning disorder.
(§3) Species: Male ddY mice/number of animals (number of animals per group): 6 to 10 animals per group
(§4) A mouse was introduced into the laboratory 1 hour before starting the test. The mouse was placed at one end of an arm in a Y-maze having equal lengths of arms in three directions, and was able freely explored for 8 minutes with the number of the entries into the arms were counted. Furthermore, a spontaneous alternation behavior was defined as consecutive entries into each of the three arms, and an alternation rate was defined as the percentage of the number of time of this behavior relative to the total number of the entries, and calculated by the following equation.
Alternation rate (%)=(number of spontaneous alternation behaviors/total number of entries−2)×100.
The compound to be tested was orally administered 50 minutes before the initiation of the test, and 30 minutes later, 0.5 mg/kg of scopolamine or 0.15 mg/kg of MK-801 (in the normal group, physiological saline) was intraperitoneally administered. Furthermore, for the normal group (the group administered with physiological saline) and the control group (the group administered with 0.5 mg/kg scopolamine or 0.15 mg/kg MK-801), a solvent (vehicle) was orally administered when the compound to be tested was administered. For the normal group, physiological saline was intraperitoneally administered when scopolamine was administered.
The alternation rate (%) is expressed as an average value in each group (mean±SE). In regard to the alternation rate (%), in the case where a significant difference between the normal group and the control group (Student's T test) was found, it was considered that there was an establishment of learning disorder by the administration of scopolamine or MK-801. By carrying out the Dunnett evaluation for the group administered with the compound to be tested relative to the control group, the presence or absence of the learning disorder action of the compound to be tested was determined. In each evaluation, it was considered that there was a tendency at p<0.10, and there was a significant difference at p<0.05.

[2] = test system: MK-801-induced spontaneous alternation behavior disorder; test: MK-801-induced spontaneous alternation behavior disorder in mice (Y-maze); type: in vivo; settings: mouse, oral, dose 0.003 mg/kg; MK-801 0.15 mg/kg i.p.
Protocol: as §1, §2, §3, §4
Alternation rate (%)=(number of spontaneous alternation behaviors/total number of entries−2)×100. […]
The alternation rate (%) is expressed as an average value in each group (mean±SE). […] By carrying out the Dunnett evaluation for the group administered with the compound to be tested relative to the control group, the presence or absence of the learning disorder action of the compound to be tested was determined. […]

[3] = test system: water maze learning disorders in old rats; test: Water maze learning disorders in old rats; type: in vivo, rat
Protocol: Evaluation of a Drug for Water Maze Learning Disorders in Old Rats
The improvement effect of the compound (I) for dementia was evaluated by a known water maze learning disorder model used as a pathophysiology model.
Specifically, it was evaluated in accordance with the method as described in “J Pharmacol Exp Ther, 1996; 279: 1157-73, Yamazaki M. et al.”.

SMILES | inhibition of scopolamine-induced spontaneous alternation behavior disorder [1] | improvement of MK-801-induced spontaneous alternation behavior disorder [2] | improvement of water maze learning disorders in old rats ([3]; dose 0.01 mg/kg) | improvement of water maze learning disorders in old rats ([3]; dose 0.03 mg/kg)
CC(C)n1c2cc(C(=O)N=C(N)N)ccc2c2c(CO)cccc21 [Example 65] | significantly inhibited |  |  | 
NC(N)=NC(=O)c1ccc2c3ccccc3n(C3CCOCC3)c2c1 [Example 25] | significantly inhibited | significantly improved | significantly improved | significantly improved
